In US10494346B2, “Substituted pyrimidine-4-carboxylic acids having anticancer activity” (KOREA INSTITUTE OF SCIENCE AND TECHNOLOGY, priority 2016, dated 2019):

Assays:
[1] = test system: KDM5A-overexpressed breast cancer cells, MCF7; assay: Growth inhibitory activity on KDM5A-overexpressed cell lines (MCF7), single concentration; type: cell-based; conditions: Homo sapiens; MCF7, single concentration 10 μM; read-out: Growth inhibitory activity at 10 μM (inhibition proportion %)
Experimental: The compound of the present invention was treated at a single concentration with KDM5A-overexpressed breast cancer cells, MCF7, and growth inhibitory activity was measured as an inhibition proportion (%).

[2] = test system: MDA-MB-231 breast cancer cell line; assay: Inhibitory activity on cancer cell proliferation, MDA-MB-231 (CellTiter-Glo, 72 hours); type: cell-based; conditions: Homo sapiens; MDA-MB-231, 72 hours
Experimental: (§1) The following test was conducted to identify whether the compound of the present invention has inhibitory activity on cancer cell proliferation.
(§2) The cancer cells herein used were lung cancer cell lines (NCI-H1299, A549) and breast cancer cell lines (MDA-MB-231).
(§3) Specifically, the NCI-H1299 cells were large cell lung carcinoma cell lines derived from human lung cancer tissues, and the MDA-MB231 cells were cell lines derived from human breast cancer tissues and obtained from the Korean cell line bank (KNCC, Seoul university), which were used for tests after passage culture. The NCI-H1299 and MDA-MB231 cell lines were cultured in a RPMI1640 medium supplemented with 10% FBS (fetal bovine serum), and were washed with buffered saline (PBS, pH 7.4), when the cells were proliferated on a plate at an affluence of 70 to 80%, and isolated into single cells using a 0.05% trypsin-EDTA (welgene) solution, and then passage-cultured at 1×10e6 cells/mL which were used for the test. 100 μL of NCI-H1299 and 100 μL of MDA-MB231 were seeded on a 96-well plate at 2×10e4 cells/mL, and 5×10e4 cells/mL, respectively, stabilized in the presence of CO2 for 12 hours or longer, and then treated at different concentrations with the subject compound. After 72 hours, absorbance was measured using a CellTiter-Glo® Luminescent Cell Viability Assay (Promega) and an Envision 2103 multilabel reader (PerkinElmer). At this time, cells treated only with dimethylsulfoxide (DMSO) were used as the control group and relative viability (%) was calculated, based on 100% of the control group. GI50 was obtained using Graph PRISM 6 software.

[3] = test system: A549 lung cancer cell line; assay: Inhibitory activity on cancer cell proliferation, A549; type: cell-based; conditions: Homo sapiens
Experimental: as §1, §2
as §3, with “100 μL of NCI-H1299 and 100 μL of MDA-MB231 were seeded on a 96-well plate at 2×10e4 cells/mL, and 5×10e4 cells/mL, respectively, stabilized in the presence of CO2 for 12 hours or longer, and then treated at different concentrations with the subject compound.” left out, “GI50 was obtained using Graph PRISM 6 software.” left out

NCI-H1299 cells = assay: Inhibitory activity on cancer cell proliferation, NCI-H1299 (CellTiter-Glo, 72 hours); type: cell-based; conditions: Homo sapiens; NCI-H1299, 72 hours
Experimental: as §1, §2
as §3, with “100 μL of NCI-H1299 and 100 μL of MDA-MB231 were seeded on a 96-well plate at 2×10e4 cells/mL, and 5×10e4 cells/mL, respectively, stabilized in the presence of CO2 for 12 hours or longer, and then treated at different concentrations with the subject compound.” left out, “GI50 was obtained using Graph PRISM 6 software.” left out

[4] = target: KDM5A (lysine demethylase 5A) (Homo sapiens, UniProt P29375); assay: Inhibitory activity against histone demethylase (in vitro IC50); type: biochemical
Sequence of KDM5A (lysine demethylase 5A) (P29375 whole entry, species assumed): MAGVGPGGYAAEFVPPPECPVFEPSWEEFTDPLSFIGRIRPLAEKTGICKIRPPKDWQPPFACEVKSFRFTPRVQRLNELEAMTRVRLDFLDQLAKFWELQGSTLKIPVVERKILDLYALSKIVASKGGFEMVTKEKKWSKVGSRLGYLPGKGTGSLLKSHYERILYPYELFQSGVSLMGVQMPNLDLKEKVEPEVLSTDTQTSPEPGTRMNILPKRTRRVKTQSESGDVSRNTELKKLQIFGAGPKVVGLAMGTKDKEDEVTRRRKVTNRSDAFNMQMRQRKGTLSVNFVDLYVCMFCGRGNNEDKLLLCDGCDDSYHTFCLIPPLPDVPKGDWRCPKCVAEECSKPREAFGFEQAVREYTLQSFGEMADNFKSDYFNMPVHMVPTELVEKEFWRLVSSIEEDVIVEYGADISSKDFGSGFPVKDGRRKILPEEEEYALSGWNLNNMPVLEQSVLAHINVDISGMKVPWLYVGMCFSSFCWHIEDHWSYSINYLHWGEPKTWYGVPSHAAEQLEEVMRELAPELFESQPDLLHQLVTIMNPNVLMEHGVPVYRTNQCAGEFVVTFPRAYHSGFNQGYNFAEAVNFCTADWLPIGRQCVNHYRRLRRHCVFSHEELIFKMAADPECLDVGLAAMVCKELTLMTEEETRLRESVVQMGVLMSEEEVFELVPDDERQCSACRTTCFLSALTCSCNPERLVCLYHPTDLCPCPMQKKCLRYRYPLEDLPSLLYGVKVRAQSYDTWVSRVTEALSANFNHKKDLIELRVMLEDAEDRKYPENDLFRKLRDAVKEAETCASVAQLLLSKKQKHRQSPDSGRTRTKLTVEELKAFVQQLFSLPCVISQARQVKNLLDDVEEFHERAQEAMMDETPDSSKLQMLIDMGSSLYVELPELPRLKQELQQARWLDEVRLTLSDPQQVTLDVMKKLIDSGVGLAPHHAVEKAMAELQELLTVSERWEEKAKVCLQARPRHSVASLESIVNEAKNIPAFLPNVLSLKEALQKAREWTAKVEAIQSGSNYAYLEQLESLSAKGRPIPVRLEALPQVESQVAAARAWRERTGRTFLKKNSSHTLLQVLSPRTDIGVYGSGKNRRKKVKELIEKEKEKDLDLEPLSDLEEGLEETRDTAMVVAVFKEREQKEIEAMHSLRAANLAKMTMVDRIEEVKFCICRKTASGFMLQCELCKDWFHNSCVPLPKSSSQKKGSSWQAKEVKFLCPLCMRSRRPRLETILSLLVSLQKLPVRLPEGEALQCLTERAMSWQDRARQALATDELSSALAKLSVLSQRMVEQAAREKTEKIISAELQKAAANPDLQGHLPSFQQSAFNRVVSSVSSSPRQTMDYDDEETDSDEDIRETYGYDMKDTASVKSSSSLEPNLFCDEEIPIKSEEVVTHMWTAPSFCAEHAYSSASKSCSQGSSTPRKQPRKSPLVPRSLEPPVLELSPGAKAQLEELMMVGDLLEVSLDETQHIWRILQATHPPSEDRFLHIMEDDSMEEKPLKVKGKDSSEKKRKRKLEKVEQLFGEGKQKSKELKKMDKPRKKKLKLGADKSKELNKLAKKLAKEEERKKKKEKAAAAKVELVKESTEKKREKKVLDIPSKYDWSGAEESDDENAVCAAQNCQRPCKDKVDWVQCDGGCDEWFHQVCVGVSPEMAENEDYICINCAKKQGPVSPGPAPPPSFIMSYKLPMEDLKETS
Experimental: Inhibitory activity against histone demethylase of the compound of the present invention was evaluated.

With `O=C(O)c1ncncc1NCc1ccc(-c2ccccc2)cc1` [Example 1, 5-(([1,1′-biphenyl]-4-ylmethyl)amino)pyrimidine-4-carboxylic Acid] the inhibition at 10 µM [1] was 40 to 80%.
Work on `O=C(O)c1ncncc1NCc1ccc(Cl)c(Cl)c1` [Example 3, 5-((3,4-dichlorobenzyl)amino)pyrimidine-4-carboxylic Acid] yielded a GI50 [2] of 10 to 100 µM and a GI50 [3] of 10 to 100 µM.
`O=C(O)c1ncncc1NCc1ccc(F)cc1` [Example 6, 5-((4-fluorobenzyl)amino)pyrimidine-4-carboxylic Acid] was tested, and the GI50 [2] was 10 to 100 µM.
For `O=C(O)c1ncncc1NCc1cc(C(F)(F)F)cc(C(F)(F)F)c1` [Example 7, 5-((3,5-bis(trifluoromethyl)benzyl)amino)pyrimidine-4-carboxylic Acid], the GI50 [2] was 10 to 100 µM.
Molecule `Cc1ccc(CNc2cncnc2C(=O)O)cc1` [Example 9, 5-((4-methylbenzyl)amino)pyrimidine-4-carboxylic Acid] has a GI50 [2] of 10 to 100 µM.
`O=C(O)c1ncncc1NCc1cccc(F)c1` [Example 10, 5-((3-fluorobenzyl)amino)pyrimidine-4-carboxylic Acid] was tested, and the GI50 (NCI-H1299 cells) was under 10 µM.
With `CCCn1nc(Nc2cncnc2C(=O)O)c2ccccc21` [Example 12, 5-((1-propyl-1H-indazol-3-yl)amino)pyrimidine-4-carboxylic Acid] the IC50 [4] was under 3 µM, the GI50 [2] was 10 to 100 µM and the GI50 [3] was 10 to 100 µM.
